This is an account of results in US20160053026A1, “METHODS FOR TREATING INFECTION BY HPV” (STC.UNM, priority 2011, published 2016).

One assay deals with EGFR. Kind of assay: Immunoblot for p-EGFR after EGF stimulation in HPV[+] and HPV[−] keratinocytes. In kind it is cell-based, human. The following applies: cetuximab 100 μg/mL or PD98059 25 μM; 10 ng/mL EGF in SFM, 5 or 15 minutes; SG3 (HPV16[+]) and NIKS (HPV[−]) cells. The method, then: (§1) FIG. 5. […] Mock=No EGF. Cell lysates were harvested and subjected to SDS-PAGE and immunoblot for p-EGFR, total EGFR, p-ERK1/2 and GAPDH, a loading control.
(§2) Western blot was performed (FIG. 5) and cell viability determined with MTT assay and clonogenic assays performed as described (FIG. 7) (Meira et al., 2009, Euro J Cancer 45:1265-1273).
(Immunoblotting shows a protein as a band on a membrane.)

Another assay deals with p-ERK1/2. Kind of assay: Immunoblot for p-ERK1/2 (MAPK signaling) after EGF stimulation in HPV[+] and HPV[−] keratinocytes. In kind it is cell-based, human. Conditions: cetuximab 100 μg/mL or PD98059 25 μM; 10 ng/mL EGF in SFM, 5 or 15 minutes; SG3 (HPV16[+]) and NIKS (HPV[−]) cells. The protocol: as §1, §2
Assay [1] concerns HPV[+] human keratinocytes. Kind of assay: MTT cell viability assay, HPV[+] cells. The following applies: cetuximab 50, 100, 200 μg/mL; PD98059 12.5, 25, 50 μM; MTT after 72 hours (seven days). In kind it is cell-based. The protocol:
(§3) FIG. 7. […] The boxes indicate the same concentrations used in the FIG. 3 and FIG. 5. MTT assays were performed to assess cell viability. Error bars represent SEM (N=3).
as §2
(§4) The proliferative capacity of MAPK inhibitor-treated cells compared to untreated cells was measured by MTT assay after 72 hours to determine the surviving fractions (FIG. 7).
A general note: Tetrazolium dyes change colour on reduction, which living cells bring about.

Assay [2] deals with HPV[−] human keratinocytes. Kind of assay: MTT cell viability assay, HPV[−] cells. In kind it is cell-based. Conditions: cetuximab 50, 100, 200 μg/mL; PD98059 12.5, 25, 50 μM; MTT after 72 hours (seven days). The method, then: as §3, §2, §4
For the next assay, the system named is HPV16 E1^E4 early mRNA. Kind of assay: RT-qPCR of HPV16 E1^E4 early mRNA in HPV[+] HFK cells. Conditions: cetuximab 100 μg/mL or PD98059 25 μM, 24-96 hours. In kind it is cell-based. (In general: Quantitative PCR measures a nucleic acid by following its amplification.)
The subject of another assay is HPV16 viral genome. Nature of the assay: qPCR of HPV16 LCR (viral genome number) in HPV[+] HFK cells. The format is cell-based. Conditions: cetuximab 100 μg/mL or PD98059 25 μM, two to six days after treatment.

Protocol for HPV16 E1^E4 early mRNA: HPV16 E1̂E4 early mRNA levels in response to treatment with EGFR or MAPK inhibitors. […] Total RNA harvested at indicated time points was subjected to RT and then to qPCR for β-actin and HPV16 E1̂E4 quantification. […] Data are the result of two separate experiments.
Total RNA harvested at 24 hours, 48 hours, 72 hours, or 96 hours was subjected to RT and then to qPCR for β-actin and HPV16 E1̂E4 quantification.
(§5) TURBO DNA-free Kit (Ambion) to remove co-purifying viral and cellular DNA. Reverse transcription (RT) of total RNAs (0.2-0.5 μg) was performed using random hexamer primers and ABI reagents (Applied Biosystems). For quantitative PCR (qPCR), 2 μl of each cDNA or total DNA was analyzed in triplicate using the SYBR Green I kit on the iCycler (Bio-Rad Laboratories, Inc., Hercules, Calif.).
Description for HPV16 viral genome: Response of HPV16 viral genome number to EGFR or MAPK Inhibitors. […] Total DNA harvested at indicated time points was subjected to qPCR for HPV16 LCR quantification. […] Data are the result of 2 separate experiments. (* p<0.05, ** p<0.01).
Total DNA harvested at two days, three days, four days, five days, or six days after treatment was subjected to qPCR (SYBR Green I kit on the BioRad iCycler) for HPV16 LCR quantification. […] Total RNAs were extracted from cells using TRIzol (Invitrogen), and processed with the
as §5

As for `COc1cccc(-c2cc(=O)c3ccccc3o2)c1N` [PD98059], the “EGFR activation (p-EGFR)” value in the assay on EGFR is “did not affect EGFR activation”. Besides, the “downstream / MAPK signaling (p-ERK1/2)” value in the assay on p-ERK1/2 was “blocked MAPK signaling”. In assay [1], the “viability of HPV[+] cells (MTT)” value was “dose-dependent decrease in viability”. In assay [2], the “viability of HPV[−] cells (MTT)” value is on record as “dose-dependent decrease in viability”. The “HPV16 E1^E4 transcript levels” value in the assay on HPV16 E1^E4 early mRNA is recorded as “decrease is statistically significant after 48 hours of treatment”. In addition, in the assay on HPV16 viral genome, the “HPV16 genome levels (LCR qPCR) compared to mock treated” value was “statistically significant decrease in HPV16 genome levels”.
